Assay [1] has as its system B. fragilis sp. fragilis ATCC25285. As to the kind of experiment: MIC by standard micro dilution method (NCCLS M7-A5). In kind it is cell-based. To be noted: Bacteroides fragilis, anaerobic strain, Brucella Blood medium supplemented, read-out: MIC, microorganism (7) B. fragilis sp. fragilis ATCC25285.
The subject of assay [2] is H. influenzae ATCC49247. Described as above. In kind it is cell-based. The note with it: Haemophilus influenzae, read-out: MIC, microorganism (6) H. influenzae ATCC49247.
The subject of assay [3] is S. aureus ATCC25923 MS. The assay is described as above. In kind it is cell-based. To be noted: Staphylococcus aureus, Mueller-Hinton medium (cation-adjusted), 16-24 h at 35° C., read-out: MIC, microorganism (1) S. aureus ATCC25923 MS.
Assay [4] has as its system S. aureus LNZ-R 432. The description is as above. In kind it is cell-based. To be noted: Staphylococcus aureus, LNZR432; linezolid-resistant strain; Mueller-Hinton medium, 16-24 h at 35° C.; read-out: MIC, microorganism (4) S. aureus LNZ-R 432.
Assay [5] has as its system E. faecium ATCC51559 MDR. Described as above. In kind it is cell-based. The note with it: Enterococcus faecium, Mueller-Hinton medium (cation-adjusted), 16-24 h at 35° C., read-out: MIC, microorganism (3) E. faecium ATCC51559 MDR.
Assay [6] has as its system S. pneumoniae ATCC49619 PR. Described as above. In kind it is cell-based. The note with it: Streptococcus pneumoniae, 20-24 h at 35° C., 5% CO2, read-out: MIC, microorganism (2) S. pneumoniae ATCC49619 PR.
Assay [7] deals with M. catarrhalis HCI-78. The description is as above. In kind it is cell-based. The note with it: Moraxella catarrhalis, HCI78; 20-24 h at 35° C., 5% CO2; read-out: MIC, microorganism (8) M. catarrhalis HCI-78.
Assay [8] concerns S. haemolyticus. Described as above. In kind it is cell-based. The note with it: Staphylococcus haemolyticus; Mueller-Hinton medium (cation-adjusted), 16-24 h at 35° C.; read-out: MIC, microorganism (5) S. haemolyticus.
Assay [9] relates to E. faecium LNZ-R LR-4. The assay is described as above. In kind it is cell-based. To be noted: Enterococcus faecium; linezolid-resistant strain; Mueller-Hinton medium, 16-24 h at 35° C.; read-out: MIC, microorganism (9) E. faecium LNZ-R LR-4.
Assay [10] deals with other Gram-negative bacteria. To be noted: background art; cited from earlier work.
The subject of assay [11] is Moraxella, Pasteurella and Bacteroides spp. The note with it: background art; cited from earlier work.

≈ marks a conversion by molar mass, not a printed value.

As to `CC(=O)NC[C@H]1CN(c2ccc(N3CCC(n4ccc(C(F)(F)F)n4)C3)c(F)c2)C(=O)O1` (stereo partly drawn) [Ex. 26, N-((5S)-3-{3-fluoro-4-[3-(3-trifluoromethyl-pyrazol-1-yl)pyrrolidin-1-yl]-phenyl}-2-oxo-5-oxazolidinylmethyl)acetamide], the MIC in assay [1] was 1 µg/mL (≈ 2.2 µM); in assay [2] it was 1 µg/mL (≈ 2.2 µM); in assay [3], 2 µg/mL (≈ 4.39 µM); in assay [4] it was 16 µg/mL (≈ 35.1 µM); in assay [5], 1 µg/mL (≈ 2.2 µM); in assay [6], 0.5 µg/mL (≈ 1.1 µM). The MIC in assay [7] came out at 2 µg/mL (≈ 4.39 µM); in assay [8], 1 µg/mL (≈ 2.2 µM); in assay [9], 2 µg/mL (≈ 4.39 µM).
For `CC(=O)NC[C@H]1CN(c2ccc(N3CCOCC3)c(F)c2)C(=O)O1` [Linezolid, N-[[(5S)-3-[3-fluoro-4-(4-morpholinyl)phenyl]-2-oxo-5-oxazolidinyl]methyl]acetamide, reference compound], the MIC is 2 µg/mL (≈ 5.93 µM) in assay [1]; 16 µg/mL (≈ 47.4 µM) in assay [2]; 1 µg/mL (≈ 2.96 µM) in assay [3]; 16 to 32 µg/mL (≈ 47.4 to 94.9 µM) in assay [4]; 0.5 µg/mL (≈ 1.48 µM) in [5]; 1 µg/mL (≈ 2.96 µM) in assay [6]. Moreover, the figures for the MIC in [7], in [8] and in assay [9] were 2 µg/mL (≈ 5.93 µM), 128 µg/mL (≈ 379 µM) and 64 µg/mL (≈ 190 µM), respectively. Further, the “susceptibility of other Gram-negative bacteria” value in assay [10] is on record as “resistant”. Moreover, the “MICS for Moraxella, Pasteurella and Bacteroides spp.” value in assay [11] is 2 to 8 µg/mL.
On to `CC(=O)NC[C@H]1CN(c2ccc(N3CCC(n4cc(-c5ccncn5)cn4)C3)c(F)c2)C(=O)O1` (stereo partly drawn) [Ex. 11, N-((5S)-3-{3-fluoro-4-[3-(4-pyrimidin-4-yl-pyrazol-1-yl)pyrrolidin-1-yl]-phenyl}-2-oxo-5-oxazolidinylmethyl)acetamide], for which the MIC is 0.5 µg/mL (≈ 1.07 µM) in assay [1]; 4 µg/mL (≈ 8.59 µM) in assay [2]; 0.5 µg/mL (≈ 1.07 µM) in assay [3]; 2 µg/mL (≈ 4.3 µM) in assay [4]; 0.25 µg/mL (≈ 0.537 µM) in [5]; 0.125 µg/mL (≈ 0.269 µM) in [6]. The results for the MIC in assay [7] and in [9] were 0.5 µg/mL (≈ 1.07 µM) and 8 µg/mL (≈ 17.2 µM), respectively.
As for `CC(=O)NC[C@H]1CN(c2ccc(N3CCC(n4cc(-c5ccncc5)cn4)C3)c(F)c2)C(=O)O1` (stereo partly drawn) [Ex. 18, N-((5S)-3-{3-fluoro-4-[3-(4-pyridin-4-yl-pyrazol-1-yl)pyrrolidin-1-yl]-phenyl}-2-oxo-5-oxazolidinylmethyl)acetamide], the MIC in assay [1] worked out at 0.25 µg/mL (≈ 0.538 µM); in assay [2], 4 µg/mL (≈ 8.61 µM); in assay [3], 0.5 µg/mL (≈ 1.08 µM); in assay [4] it was 2 µg/mL (≈ 4.31 µM); in assay [5], 0.25 µg/mL (≈ 0.538 µM); in [6], 0.06 µg/mL (≈ 0.129 µM). Further, the MIC came out at 0.5 µg/mL (≈ 1.08 µM) in assay [7] and 8 µg/mL (≈ 17.2 µM) in assay [9].
Turning to `CC(=O)NC[C@H]1CN(c2ccc(N3CCC(n4ccnn4)C3)c(F)c2)C(=O)O1` (stereo partly drawn) [Ex. 3, N-((5S)-3-{3-fluoro-4-[3-(1-triazolyl)pyrrolidin-1-yl]-phenyl}-2-oxo-5-oxazolidinylmethyl)acetamide], the MIC was 1 µg/mL (≈ 2.57 µM) in assay [1]; 4 µg/mL (≈ 10.3 µM) in assay [2]; 1 µg/mL (≈ 2.57 µM) in assay [3]; 16 µg/mL (≈ 41.2 µM) in assay [4]; 0.5 µg/mL (≈ 1.29 µM) in assay [5]; 1 µg/mL (≈ 2.57 µM) in assay [6]. Moreover, the MIC was 1 µg/mL (≈ 2.57 µM) in [7], 4 µg/mL (≈ 10.3 µM) in [8] and 8 µg/mL (≈ 20.6 µM) in assay [9].
For `CC(=O)NC[C@H]1CN(c2ccc(N3CCC(n4cc(-c5ccc([N+](=O)[O-])cc5)cn4)C3)c(F)c2)C(=O)O1` (stereo partly drawn) [Ex. 19, N-[(5S)-3-(3-fluoro-4-{3-[4-(4-nitrophenyl)-pyrazol-1-yl]pyrrolidin-1-yl}-phenyl)-2-oxo-5-oxazolidinylmethyl]acetamide], the MIC in assay [1] is 1 µg/mL (≈ 1.97 µM); in assay [2], 4 µg/mL (≈ 7.87 µM); in assay [3], 0.5 µg/mL (≈ 0.983 µM); in assay [4], 2 µg/mL (≈ 3.93 µM); in assay [5], 0.25 µg/mL (≈ 0.492 µM); in [6] it was 0.125 µg/mL (≈ 0.246 µM). Moreover, the results for the MIC in [7] and in assay [9] were 1 µg/mL (≈ 1.97 µM) and 64 µg/mL (≈ 126 µM), respectively.
`CC(=O)NC[C@H]1CN(c2ccc(N3CCC(n4cc(Br)cn4)C3)c(F)c2)C(=O)O1` (stereo partly drawn) [Ex. 17, N-((5S)-3-{3-fluoro-4-[3-(4-bromopyrazol-1-yl)pyrrolidin-1-yl]-phenyl}-2-oxo-5-oxazolidinylmethyl)acetamide]: the MIC in assay [1] was 0.5 µg/mL (≈ 1.07 µM); in assay [2], 1 µg/mL (≈ 2.14 µM); in assay [3], 1 µg/mL (≈ 2.14 µM); in [4] it was 8 µg/mL (≈ 17.2 µM); in assay [5], 0.5 µg/mL (≈ 1.07 µM); in assay [6], 0.25 µg/mL (≈ 0.536 µM). Also, the results for the MIC in [7], in assay [8] and in assay [9] were 2 µg/mL (≈ 4.29 µM), 1 µg/mL (≈ 2.14 µM) and 1 µg/mL (≈ 2.14 µM), respectively.
In the case of `CC(=O)NC[C@H]1CN(c2ccc(N3CCC(n4cc([N+](=O)[O-])cn4)C3)c(F)c2)C(=O)O1` (stereo partly drawn) [Ex. 9, N-((5S)-3-{3-fluoro-4-[3-(4-nitropyrazol)pyrrolidinyl]-phenyl}-2-oxo-5-oxazolidinylmethyl)acetamide], the MIC is 0.5 µg/mL (≈ 1.16 µM) in assay [1]; 2 µg/mL (≈ 4.63 µM) in [2]; 1 µg/mL (≈ 2.31 µM) in [3]; 8 µg/mL (≈ 18.5 µM) in assay [4]; 1 µg/mL (≈ 2.31 µM) in assay [5]; 0.25 µg/mL (≈ 0.578 µM) in assay [6]. The MIC in [7] was found to be 1 µg/mL (≈ 2.31 µM); in assay [8], 1 µg/mL (≈ 2.31 µM); in assay [9] it was 4 µg/mL (≈ 9.25 µM).
Take `CC(=O)NC[C@H]1CN(c2ccc(N3CCC(n4nnc(-c5cccs5)n4)C3)c(F)c2)C(=O)O1` (stereo partly drawn) [Ex. 15, N-((5S)-3-{3-fluoro-4-[3-(5-thiophen-2-yl-tetrazol-2-yl)pyrrolidin-1-yl]-phenyl}-2-oxo-5-oxazolidinylmethyl)acetamide]: the MIC in assay [1] stood at 0.5 µg/mL (≈ 1.06 µM); in [2], 8 µg/mL (≈ 17 µM); in [3] it was 0.5 µg/mL (≈ 1.06 µM); in assay [4], 4 µg/mL (≈ 8.48 µM); in assay [5], 0.25 µg/mL (≈ 0.53 µM); in assay [6] it was 0.125 µg/mL (≈ 0.265 µM). The MIC in assay [7] came to 2 µg/mL (≈ 4.24 µM); in assay [9] it was 8 µg/mL (≈ 17 µM).
